# Read-outs that look alike come from different tables or passages of the source.
# Assays:
# [1] = Changes in animal body weight during chronic caffeine treatment (AUC of weight change); assay type: in vivo, mouse; details: for Area under the curve (AUC) of change in body weight: caffeine 0.3mg/ml in drinking water from 11th to 16-18th week of age, weight change vs first day of administration (PND 72), mean ± SEM; for Weight gain compared to vehicle treatment: caffeine 0.3mg/ml in drinking water
# Description: (§1) During the experimental period, animals had ad libitum access to water, independently of treatment group. […] After 5–7 weeks of treatment, mice were sacrificed, cortex and spinal cord samples were removed and snap frozen in liquid nitrogen. All samples were kept at -80°C for posterior analysis.
# Animal body weight was monitored throughout the chronic drug administration experiments, with animals being weighed once every 2 to 3 days. We used weight changes a proxy of the disease state, as it was described that SOD1^G93A mice show a gradual loss of weight through time, and that these correlate with other disease states indicators. We decided not to use behavioral data (eg RotaRod performance) to avoid changes in protein levels or expression due to physical exercise, which would have even more impact in SOD1^G93A mice than in WT, thus introducing an additional variable and therefore making comparisons more difficult.
# Because SOD1^G93A tend to generally weight less than their WT counterparts, group comparisons of absolute weight were deemed inadequate. As such, changes in the body weight of each animal were calculated by subtracting the weight of that animal on the first day of drug administration (72nd day of life) to its weight at each subsequent time-point, with results being expressed in grams. To facilitate comparison of treatment effects, the area under the curve (AUC) of these changes in weight was obtained.
# VEGFA = VEGFA protein levels by ELISA after chronic caffeine treatment; assay type: in vivo, mouse; details: for VEGFA protein levels: caffeine 0.3mg/ml in drinking water from 11 weeks, mean ± SEM
# Description: (§2) Cortex and spinal cord samples were homogenized in […] (RIPA) lysis buffer (1M Tris pH 8.0, 0.5M EDTA pH 8.0, 5M NaCl, 10% NP-40, 50% Glycerol), supplemented with cOmpleteTM Mini protease inhibitor cocktail tablets (Roche, Penzberg, Germany) and centrifuged. Protein quantification was performed using the DC™ Protein Assay kit (Bio-Rad Laboratories, Hercules, CA, USA). VEGFA, VEGFR-1 and VEGFR-2 protein levels were quantified with the DuoSet® ELISA Development System Kit (R&D Systems, Abingdon, UK), according to manufacturer instructions. Assessment of VEGFB protein levels was performed with the Mouse VEGFB ELISA Kit (Thermo Scientific, Massachusetts, USA), also according to manufacturer instructions. […] To improve BDNF detection, samples were acidified with HCl 1M, until reaching approximately pH 2.6. After 10 to 20 minutes, NaOH was added to neutralize the samples to pH 7.6. Absorbances were read in a microplate reader (Microplate Reader TECAN Infinite M200, Männedorf, Switzerland) at 450nm and 540nm, with the latter being subtracted to the former with the goal of correcting for differences in plate background. Results are expressed as picograms per milligram of total protein (pg/mg).
# as §1
# VEGFB = VEGFB protein levels by ELISA after chronic caffeine treatment; assay type: in vivo, mouse; details: caffeine 0.3mg/ml in drinking water from 11 weeks, mean ± SEM
# Description: as §2, §1
# VEGFR-1 = VEGFR-1 protein levels by ELISA after chronic caffeine treatment; assay type: in vivo, mouse; details: caffeine 0.3mg/ml in drinking water from 11 weeks, mean ± SEM
# Description: as §2, §1
# VEGFR-2 = VEGFR-2 protein levels by ELISA after chronic caffeine treatment; assay type: in vivo, mouse; details: caffeine 0.3mg/ml in drinking water from 11 weeks, mean ± SEM
# Description: as §2
# After 5–7 weeks of treatment, mice were sacrificed, cortex and spinal cord samples were removed and snap frozen in liquid nitrogen. All samples were kept at -80°C for posterior analysis.
# BDNF = BDNF protein levels by ELISA after chronic caffeine treatment; assay type: in vivo, mouse; details: caffeine 0.3mg/ml in drinking water from 11 weeks, mean ± SEM
# Description: as §2, §1
# [2] = Water intake during chronic caffeine treatment; assay type: in vivo; details: WT and SOD1^G93A mice; tap water or caffeine (0.3mg/ml); approximately 5–6 mL per day per mouse
# Description: as §1
# SOD1^G93A mice [3] = details: caffeine 0.3mg/ml in drinking water from 11th week of age
# SOD1^G93A mice [4] = details: cited from earlier work
# A1R = target: T1, A1R (Mus musculus, UniProt Q60612); assay type: binding; details: mean ± SEM, read-out: DPCPX equilibrium dissociation constant (KD)
# T1 construct: To obtain the P1 fraction, cerebral cortex and spinal cord were homogenized in chilled sucrose; from tissue; host or cells: cerebral cortex and spinal cord membranes (P1 fraction) of SOD1-G93A transgenic and WT B6SJL mice
# T1 sequence (Q60612 1-326): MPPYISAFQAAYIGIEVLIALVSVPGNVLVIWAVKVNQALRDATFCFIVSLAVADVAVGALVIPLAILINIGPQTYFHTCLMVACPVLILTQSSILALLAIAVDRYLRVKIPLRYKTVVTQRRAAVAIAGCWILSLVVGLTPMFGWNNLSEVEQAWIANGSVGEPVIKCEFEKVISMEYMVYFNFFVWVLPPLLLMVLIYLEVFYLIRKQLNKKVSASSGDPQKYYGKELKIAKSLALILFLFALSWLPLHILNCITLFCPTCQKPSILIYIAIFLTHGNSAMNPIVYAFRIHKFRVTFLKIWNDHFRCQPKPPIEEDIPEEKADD
# Description: The radioligand-binding experiments were performed as previously described with membrane fractions (total membranes, P1 fraction). To obtain the P1 fraction, cerebral cortex and spinal cord were homogenized in chilled sucrose (pH 7.6), centrifuged at 3000 g, the pellet discarded, and the supernatant centrifuged at 14000 g (P1 fraction). The P1 fraction was then resuspended in sucrose (pH 7.6). Protein quantification was done with DC™ Protein Assay kit (Bio-Rad Laboratories, CA, USA), with bovine serum albumin (BSA) as the reference standard. […] Non-specific binding was measured in the presence of 2 μM of Xanthine Amine Congener (XAC, Tocris Bioscience, Bristol, United Kingdom), and the resulting values were subtracted from those obtained with [^3H]DPCPX to determine the specific binding and normalized for protein concentration. Results are expressed as femtomole per mg of total protein (fmol/mg).
structure (smiles),measurement,setting,value
Cn1c(=O)c2c(ncn2C)n(C)c1=O [caffeine],Area under the curve (AUC) of change in body weight,"[1]; SOD1^G93A mice, SOD-VEH 12.90 ± 3.033",22.70 ±3.795
same,Weight gain compared to vehicle treatment,"[1]; SOD1^G93A mice, not statistically significant (p = 0.058)",trend towards an increase in weight gain
same,Area under the curve (AUC) of change in body weight,"[1]; WT mice, WT-VEH 71.20 ± 2.011",83.40 ± 4.743
same,Weight gain compared to vehicle treatment,"[1]; WT mice, p = 0.039",small but statistically significant increase in weight gain
same,Effect of caffeine upon VEGFA protein levels,"VEGFA; cortex, WT and SOD1^G93A mice 16–18 weeks old, caffeine 0.3mg/ml in drinking water",absence of effect
same,VEGFA protein levels,"VEGFA; cortex, WT mice 16–18 weeks old, WT-VEH 3.62",2.05 ± 0.324 pg/mg protein
same,VEGFA protein levels,"VEGFA; spinal cord, SOD1^G93A mice 16–18 weeks old, SOD-VEH 4.151 ± 0.820",3.743 ± 1.018 pg/mg protein
same,VEGFA protein levels,"VEGFA; spinal cord, WT mice 16–18 weeks old, WT-VEH 2.798",3.774 ± 0.451 pg/mg protein
same,VEGFB protein levels,"VEGFB; cortex, SOD1^G93A mice 16–18 weeks old, SOD-VEH 164.7 ± 10.79",157.8 ± 13.94 pg/mg protein
same,VEGFB protein levels,"VEGFB; cortex, WT mice 16–18 weeks old, WT-VEH 166.8 ± 20.91",170.7 ± 33.07 pg/mg protein
same,VEGFB protein levels,"VEGFB; spinal cord, SOD1^G93A mice 16–18 weeks old, SOD-VEH 545.6 ± 35.13",545.3 ± 55.72 pg/mg protein
same,VEGFB protein levels,"VEGFB; spinal cord, WT mice 16–18 weeks old, WT-VEH 366.0 ± 64.68",366.5 ± 90.97 pg/mg protein
same,VEGFR-1 protein levels,"VEGFR-1; cortex, SOD1^G93A mice 16–18 weeks old, SOD-VEH 905.1 ± 30.64",926.5 ± 89.92 pg/mg protein
same,VEGFR-1 protein levels,"VEGFR-1; cortex, WT mice 16–18 weeks old, WT-VEH 1078 ± 90.79",1004 ± 146.9 pg/mg protein
same,VEGFR-1 protein levels,"VEGFR-1; spinal cord, SOD1^G93A mice 16–18 weeks old, SOD-VEH 919.3 ± 50.34",1048 ± 115.2 pg/mg protein
same,VEGFR-2 protein levels,"VEGFR-2; cortex, SOD1^G93A mice 16–18 weeks old, SOD-VEH 45.41 ± 5.938",50.51 ± 6.925 pg/mg protein
same,VEGFR-2 protein levels,"VEGFR-2; cortex, WT mice 16–18 weeks old, WT-VEH 45.14 ± 4.019",39.02 ± 4.077 pg/mg protein
same,VEGFR-2 protein levels,"VEGFR-2; spinal cord, WT mice 16–18 weeks old, WT-VEH 108 ± 32.5",121 ± 40.6 pg/mg protein
same,BDNF protein levels,"BDNF; cortex, SOD1^G93A mice 16–18 weeks old, SOD-VEH 29.75 ± 4.560, p = 0.042",13.85 ± 2.372 pg/mg protein
same,BDNF protein levels,"BDNF; cortex, WT mice 16–18 weeks old, WT vehicle 20.96 ± 1.403, p = 0.020",40.24 ± 6.342 pg/mg protein
same,BDNF protein levels,"BDNF; spinal cord, SOD1^G93A mice 16–18 weeks old, SOD-VEH 19.34, p = 0.038, high variability",49.10 ± 10.82 pg/mg protein
same,BDNF protein levels,"BDNF; spinal cord, WT mice 16–18 weeks old",14.37 ± 4.488 pg/mg protein
same,"Water intake, difference between treatment groups",[2],No substantial differences
same,Symptoms on visual inspection,SOD1^G93A mice [3],trend to symptoms aggravation
same,Time to humane endpoint (onset of hindlimb paresis) vs vehicle treated SOD1^G93A mice,SOD1^G93A mice [3],slightly earlier
same,Effect on ALS symptoms,SOD1^G93A mice [4],exacerbates ALS symptoms
"CCCn1c(=O)c2[nH]c(C3CCCC3)nc2n(CCC)c1=O [DPCPX, [^3H]-8-Cyclopentyl-1,3-dipropylxanyine]",Kd,"A1R; cortex, WT mice age-matched to pre-symptomatic (4–6 weeks old)",3.1 ± 1.55 nM
same,Kd,"A1R; cortex, WT mice age-matched to symptomatic (12–14 weeks old)",7.98 ± 1.01 nM
same,Kd,"A1R; cortex, pre-symptomatic SOD1^G93A mice (4–6 weeks old)",4.97 ± 1.07 nM
same,Kd,"A1R; cortex, symptomatic SOD1^G93A mice (12–14 weeks old)",4.43 ± 0.821 nM
same,Kd,"A1R; spinal cord, WT mice age-matched to pre-symptomatic (4–6 weeks old)",15 ± 3.83 nM
same,Kd,"A1R; spinal cord, WT mice age-matched to symptomatic (12–14 weeks old)",4.32 ± 0.924 nM
same,Kd,"A1R; spinal cord, pre-symptomatic SOD1^G93A mice (4–6 weeks old)",12 ± 4.55 nM
same,Kd,"A1R; spinal cord, symptomatic SOD1^G93A mice (12–14 weeks old)",11.1 ± 3.47 nM

# Reference: paper PMC9749988 (PLOS ONE, 2022)
